Test results from PMC4138103 (PLoS ONE, 2014).

Test system: Sprague-Dawley rats
Test: Organ weights
Type: in vivo, Rattus norvegicus
Experimental: At the end of the treatment period (males on study day 28–31, females on study day 28–32) the rats were anesthetized with CO2/O2 (70/30%). Blood samples were drawn from the left ventricle using Venoject needles (Terumo) and Vacuette EDTA and serum blood collection tubes, and the rats were killed by exsanguination. EDTA blood was used for hematology investigations (see below). Serum was separated, divided into aliquots, frozen in liquid nitrogen and stored at −70°C for further analysis (see below). A complete necropsy (macroscopic observations, tissue sampling for molecular biology, biochemistry, histopathology, analytical chemistry and organ weights) was performed on each rat. The weights of the following organs were recorded: adrenals, brain, epididymides, heart, kidneys, liver, lungs, ovaries, pituitary, prostate (ventral), seminal vesicles, spleen, testes, thymus, thyroids (with parathyroids) and uterus. For molecular biology and biochemical analyses samples from brain, liver, kidney, bones, and several other tissues were snap frozen in liquid nitrogen and stored at −80°C for further analysis. […] Tissue samples for histopathology were preserved in 10% neutral buffered formalin except testis and epididymis, which were fixed in Bouin's solution for 24 h after which they were transferred into 70% ethanol.
Data were also analyzed using the BMD method, which is based on dose-response modeling of the full data set using a nested family of exponential and Hill models. The analyses were done on data of males and females combined, using sex as a covariate. […] In that case, different Critical Effect Doses (CEDs) and CEDs at the lowest bound of the confidence interval (CED-L) were generated for each sex. If no difference between sexes is detected, a CED and CED-Ls for the combined data is generated. However, this was also done if the curve fits are close, and separate analyses for males and females were then performed manually. CEDs and CED-Ls were calculated at the predefined Critical Effect Size (CES) of 5% (EFSA standard) or 10%.

[1] = females, total dose 1000 mg/kg bw, group mean
[2] = females, total dose 1700 mg/kg bw, group mean
[3] = males, CES 5%, total dose based
[4] = males, CES 10%, total dose based
[5] = males, adipose tissue concentration based
[6] = males, total dose 3 mg/kg bw, group mean
[7] = males, total dose 10 mg/kg bw, group mean
[8] = males, total dose 30 mg/kg bw, group mean
[9] = males, total dose 100 mg/kg bw, group mean
[10] = males, total dose 300 mg/kg bw, group mean
[11] = males, total dose 1000 mg/kg bw, group mean
[12] = males, total dose 1700 mg/kg bw, group mean

With `Clc1cc(Cl)c(-c2cc(Cl)c(Cl)c(Cl)c2Cl)cc1Cl` [PCB 180, 2,2′,3′,4,4′,5,5′-heptachlorobiphenyl] the “Organ weight, Spleen” value [1] was 0.700 g, the “Organ weight, Thymus” value [1] was 0.528 g and the “Organ weight, Thyroid gland” value [1] was 0.0158 g. The “Organ weight, Uterus” value [1] was 0.374 g, the “Organ weight, Adrenals” value [2] was 0.0657 g and the “Organ weight, Brain” value [2] was 1.60 g. For the same compound, the “Organ weight, Heart” value [2] was 0.900 g, the “Organ weight, Kidneys” value [2] was 1.40 g and the “Organ weight, Ovaries” value [2] was 0.102 g. The “Organ weight, Pituitary” value [2] was 0.0108 g, the “Organ weight, Spleen” value [2] was 0.664 g and the “Organ weight, Thymus” value [2] was 0.560 g. For the same compound, the “Organ weight, Thyroid gland” value [2] was 0.0160 g, the “Organ weight, Uterus” value [2] was 0.366 g and the “Dose response, Thyroid gland weight” value (males, total dose 0-1700 mg/kg bw) was “D, T”. For the same compound, the “Liver weight, CED” value [3] was 11.6 mg/kg bw, the “Liver weight, CED-L” value [3] was 5.48 mg/kg bw and the “Thyroid gland weight, CED” value [3] was 239 mg/kg bw. For the same compound, the “Thyroid gland weight, CED-L” value [3] was 168 mg/kg bw, the “Liver weight, CED” value [4] was 24.2 mg/kg bw and the “Liver weight, CED-L” value [4] was 11.4 mg/kg bw. For the same compound, the “Thyroid gland weight, CED” value [4] was 467 mg/kg bw, the “Thyroid gland weight, CED-L” value [4] was 328 mg/kg bw and the “Liver weight, CED” value [5] was 42.3 µg/g lipid. For the same compound, the “Thyroid weight, CED” value [5] was 1030 µg/g lipid, the “Organ weight, Adrenals” value [6] was 0.0472 g and the “Organ weight, Brain” value [6] was 1.65 g. For the same compound, the “Organ weight, Epididymides” value [6] was 0.972 g, the “Organ weight, Heart” value [6] was 1.27 g and the “Organ weight, Kidneys” value [6] was 2.00 g. The “Organ weight, Pituitary” value [6] was 0.0091 g, the “Organ weight, Seminal vesicles” value [6] was 0.915 g and the “Organ weight, Spleen” value [6] was 0.828 g. The “Organ weight, Testis L” value [6] was 1.82 g, the “Organ weight, Testis R” value [6] was 1.82 g and the “Organ weight, Thymus” value [6] was 0.632 g. The “Organ weight, Thyroid gland” value [6] was 0.0210 g, the “Organ weight, Ventral prostate” value [6] was 0.492 g and the “Organ weight, Adrenals” value [7] was 0.0514 g. The “Organ weight, Brain” value [7] was 1.75 g, the “Organ weight, Epididymides” value [7] was 0.952 g and the “Organ weight, Heart” value [7] was 1.17 g. The “Organ weight, Kidneys” value [7] was 2.15 g, the “Organ weight, Pituitary” value [7] was 0.0088 g and the “Organ weight, Seminal vesicles” value [7] was 0.983 g. The “Organ weight, Spleen” value [7] was 0.828 g, the “Organ weight, Testis L” value [7] was 1.92 g and the “Organ weight, Testis R” value [7] was 1.88 g. For the same compound, the “Organ weight, Thymus” value [7] was 0.594 g, the “Organ weight, Thyroid gland” value [7] was 0.0221 g and the “Organ weight, Ventral prostate” value [7] was 0.451 g. For the same compound, the “Organ weight, Adrenals” value [8] was 0.0665 g, the “Organ weight, Brain” value [8] was 1.72 g and the “Organ weight, Epididymides” value [8] was 1.030 g. For the same compound, the “Organ weight, Heart” value [8] was 1.31 g, the “Organ weight, Kidneys” value [8] was 2.09 g and the “Organ weight, Pituitary” value [8] was 0.0098 g. The “Organ weight, Seminal vesicles” value [8] was 0.966 g, the “Organ weight, Spleen” value [8] was 0.876 g and the “Organ weight, Testis L” value [8] was 1.79 g. For the same compound, the “Organ weight, Testis R” value [8] was 1.78 g, the “Organ weight, Thymus” value [8] was 0.764 g and the “Organ weight, Thyroid gland” value [8] was 0.0227 g. For the same compound, the “Organ weight, Ventral prostate” value [8] was 0.518 g, the “Organ weight, Adrenals” value [9] was 0.0513 g and the “Organ weight, Brain” value [9] was 1.70 g. For the same compound, the “Organ weight, Epididymides” value [9] was 0.992 g, the “Organ weight, Heart” value [9] was 1.20 g and the “Organ weight, Kidneys” value [9] was 2.13 g. For the same compound, the “Organ weight, Pituitary” value [9] was 0.0107 g, the “Organ weight, Seminal vesicles” value [9] was 1.015 g and the “Organ weight, Spleen” value [9] was 0.826 g. The “Organ weight, Testis L” value [9] was 1.88 g, the “Organ weight, Testis R” value [9] was 1.88 g and the “Organ weight, Thymus” value [9] was 0.770 g. The “Organ weight, Thyroid gland” value [9] was 0.0236 g, the “Organ weight, Ventral prostate” value [9] was 0.521 g and the “Organ weight, Adrenals” value [10] was 0.0407 g. The “Organ weight, Brain” value [10] was 1.74 g, the “Organ weight, Epididymides” value [10] was 0.966 g and the “Organ weight, Heart” value [10] was 1.23 g. The “Organ weight, Kidneys” value [10] was 2.11 g, the “Organ weight, Pituitary” value [10] was 0.0098 g and the “Organ weight, Seminal vesicles” value [10] was 1.038 g. For the same compound, the “Organ weight, Spleen” value [10] was 0.858 g, the “Organ weight, Testis L” value [10] was 1.87 g and the “Organ weight, Testis R” value [10] was 1.85 g. The “Organ weight, Thymus” value [10] was 0.690 g, the “Organ weight, Thyroid gland” value [10] was 0.0266 g and the “Organ weight, Ventral prostate” value [10] was 0.536 g. The “Organ weight, Adrenals” value [11] was 0.0450 g, the “Organ weight, Brain” value [11] was 1.71 g and the “Organ weight, Epididymides” value [11] was 0.974 g. For the same compound, the “Organ weight, Heart” value [11] was 1.12 g, the “Organ weight, Kidneys” value [11] was 2.18 g and the “Organ weight, Pituitary” value [11] was 0.0115 g. The “Organ weight, Seminal vesicles” value [11] was 1.210 g, the “Organ weight, Spleen” value [11] was 0.858 g and the “Organ weight, Testis L” value [11] was 1.89 g. The “Organ weight, Testis R” value [11] was 1.85 g, the “Organ weight, Thymus” value [11] was 0.686 g and the “Organ weight, Thyroid gland” value [11] was 0.0294 g. For the same compound, the “Organ weight, Ventral prostate” value [11] was 0.566 g, the “Organ weight, Adrenals” value [12] was 0.0463 g and the “Organ weight, Brain” value [12] was 1.68 g. The “Organ weight, Epididymides” value [12] was 0.952 g, the “Organ weight, Heart” value [12] was 1.16 g and the “Organ weight, Kidneys” value [12] was 2.03 g. The “Organ weight, Pituitary” value [12] was 0.0089 g, the “Organ weight, Seminal vesicles” value [12] was 0.947 g and the “Organ weight, Spleen” value [12] was 0.800 g. For the same compound, the “Organ weight, Testis L” value [12] was 1.84 g, the “Organ weight, Testis R” value [12] was 1.88 g and the “Organ weight, Thymus” value [12] was 0.772 g. The “Organ weight, Ventral prostate” value [12] was 0.461 g and the Thymus weight (rat, in vivo) was “not decreased”.
